# Experimental data as given in ChEMBL document CHEMBL3045135, “Synthesis, characterization and pharmacological evaluation of (E)-N-(substituted-benzylidene)isonicotinohydrazide derivatives as potent anticonvulsant agents” (Med Chem Res, 2012).
# The source made the active and inactive calls. No cut-off for these calls is given here.
# Tested on: Mus musculus
# Assay: Anticonvulsant activity in Mus musculus C57B/6 (mouse) assessed as protection against maximal electroshock-induced seizure at 300 mg/kg, ip after 0.5 hr
# Format: functional, organism-based
# Set-up: dose 300 mg/kg
# Conditions: not given
row,SMILES,Activity
1,O=C(N/N=C(\c1ccccc1)c1ccc(Br)cc1)c1ccncc1,inactive
2,CN(C)c1ccc(/C=N/NC(=O)c2ccncc2)cc1 [N'-(4-DIMETHYLAMINOBENZYLIDENE)ISONICOTINOHYDRAZIDE],inactive
3,C/C(=N\NC(=O)c1ccncc1)c1ccccc1 [ISONICOTINOYLHYDRAZONE OF ACETOPHENONE],inactive

# Tested on: Mus musculus
# Assay: Anticonvulsant activity in Mus musculus C57B/6 (mouse) assessed as protection against subcutaneous pentylene tetrazole-induced seizure at 300 mg/kg, ip after 0.5 hr
# Format: functional, organism-based
# Set-up: dose 300 mg/kg
# Conditions: not given
row,SMILES,Activity
1,O=C(N/N=C(\c1ccccc1)c1ccc(Br)cc1)c1ccncc1,inactive
2,O=C1NC(=O)C(c2ccccc2)(c2ccccc2)N1 [PHENYTOIN],inactive
3,CN(C)c1ccc(/C=N/NC(=O)c2ccncc2)cc1 [N'-(4-DIMETHYLAMINOBENZYLIDENE)ISONICOTINOHYDRAZIDE],inactive
4,O=C(N/N=C/c1ccccc1)c1ccncc1 [N'-BENZYLIDENE ISONICOTINOHYDRAZIDE],inactive
5,O=C(N/N=C/c1cccc(F)c1)c1ccncc1,inactive
6,CCOc1ccccc1/C=N/NC(=O)c1ccncc1,inactive
7,C/C(=N\NC(=O)c1ccncc1)c1ccccc1 [ISONICOTINOYLHYDRAZONE OF ACETOPHENONE],inactive

# Tested on: Mus musculus
# Assay: Anticonvulsant activity in ip dosed Mus musculus C57B/6 (mouse) assessed as protection against maximal electroshock-induced seizure after 0.5 hr
# Format: functional
# Conditions: C57B/6, ip, read-out: MED
row,SMILES,minimal effective dose
1,O=C1NC(=O)C(c2ccccc2)(c2ccccc2)N1 [PHENYTOIN],30 mg/kg
2,O=C(N/N=C/c1ccccc1)c1ccncc1 [N'-BENZYLIDENE ISONICOTINOHYDRAZIDE],300 mg/kg
3,O=C(N/N=C/c1cccc(F)c1)c1ccncc1,300 mg/kg
4,CCOc1ccccc1/C=N/NC(=O)c1ccncc1,300 mg/kg
5,O=C(NN=C(c1ccccc1)c1ccccc1)c1ccncc1,300 mg/kg

# Tested on: Mus musculus
# Assay: Anticonvulsant activity in Mus musculus C57B/6 (mouse) assessed as protection against maximal electroshock-induced seizure at 300 mg/kg, ip after 4 hr
# Format: functional, organism-based
# Set-up: dose 300 mg/kg
# Conditions: not given
row,SMILES,Activity
1,O=C(N/N=C(\c1ccccc1)c1ccc(Br)cc1)c1ccncc1,inactive
2,CN(C)c1ccc(/C=N/NC(=O)c2ccncc2)cc1 [N'-(4-DIMETHYLAMINOBENZYLIDENE)ISONICOTINOHYDRAZIDE],inactive
3,O=C(N/N=C/c1ccccc1)c1ccncc1 [N'-BENZYLIDENE ISONICOTINOHYDRAZIDE],inactive
4,O=C(N/N=C/c1cccc(F)c1)c1ccncc1,inactive
5,CCOc1ccccc1/C=N/NC(=O)c1ccncc1,inactive
6,C/C(=N\NC(=O)c1ccncc1)c1ccccc1 [ISONICOTINOYLHYDRAZONE OF ACETOPHENONE],inactive
7,O=C(NN=C(c1ccccc1)c1ccccc1)c1ccncc1,inactive

# Tested on: Mus musculus
# Assay: Neurotoxicity in Mus musculus C57B/6 (mouse) assessed as minimal motor impairment at 300 mg/kg, ip after 4 hr
# Format: toxicity, organism-based
# Set-up: dose 300 mg/kg, route intraperitoneal
# Conditions: in vivo
row,SMILES,Activity
1,O=C(N/N=C/c1ccccc1)c1ccncc1 [N'-BENZYLIDENE ISONICOTINOHYDRAZIDE],Non-toxic
2,O=C(N/N=C/c1cccc(F)c1)c1ccncc1,Non-toxic
3,CCOc1ccccc1/C=N/NC(=O)c1ccncc1,Non-toxic
4,O=C(NN=C(c1ccccc1)c1ccccc1)c1ccncc1,Non-toxic

# Tested on: Mus musculus
# Assay: Anticonvulsant activity in Mus musculus C57B/6 (mouse) assessed as protection against 6 Hz psychomotor seizure at 100 mg/kg, ip after 0.25 to 4 hr by minimal clonic seizure test
# Format: functional, organism-based
# Set-up: dose 100 mg/kg
# Conditions: not given
row,SMILES,Activity
1,O=C(N/N=C/c1ccccc1)c1ccncc1 [N'-BENZYLIDENE ISONICOTINOHYDRAZIDE],Active
2,O=C(N/N=C/c1cccc(F)c1)c1ccncc1,Active
3,CCOc1ccccc1/C=N/NC(=O)c1ccncc1,Active
4,O=C(NN=C(c1ccccc1)c1ccccc1)c1ccncc1,Active

# Tested on: Mus musculus
# Assay: Anticonvulsant activity in Mus musculus C57B/6 (mouse) assessed as protection against subcutaneous pentylene tetrazole-induced seizure at 300 mg/kg, ip after 4 hr
# Format: functional, organism-based
# Set-up: dose 300 mg/kg
# Conditions: not given
row,SMILES,Activity
1,O=C(N/N=C(\c1ccccc1)c1ccc(Br)cc1)c1ccncc1,inactive
2,O=C1NC(=O)C(c2ccccc2)(c2ccccc2)N1 [PHENYTOIN],inactive
3,CN(C)c1ccc(/C=N/NC(=O)c2ccncc2)cc1 [N'-(4-DIMETHYLAMINOBENZYLIDENE)ISONICOTINOHYDRAZIDE],inactive
4,O=C(N/N=C/c1ccccc1)c1ccncc1 [N'-BENZYLIDENE ISONICOTINOHYDRAZIDE],inactive
5,O=C(N/N=C/c1cccc(F)c1)c1ccncc1,inactive
6,CCOc1ccccc1/C=N/NC(=O)c1ccncc1,inactive
7,C/C(=N\NC(=O)c1ccncc1)c1ccccc1 [ISONICOTINOYLHYDRAZONE OF ACETOPHENONE],inactive
8,O=C(NN=C(c1ccccc1)c1ccccc1)c1ccncc1,inactive

# Tested on: Mus musculus
# Assay: Neurotoxicity in Mus musculus C57B/6 (mouse) assessed as minimal motor impairment at 300 mg/kg, ip after 0.5 hr
# Format: toxicity, organism-based
# Set-up: dose 300 mg/kg, route intraperitoneal
# Conditions: in vivo
row,SMILES,Activity
1,O=C(N/N=C(\c1ccccc1)c1ccc(Br)cc1)c1ccncc1,Non-toxic
2,CN(C)c1ccc(/C=N/NC(=O)c2ccncc2)cc1 [N'-(4-DIMETHYLAMINOBENZYLIDENE)ISONICOTINOHYDRAZIDE],Non-toxic
3,O=C(N/N=C/c1ccccc1)c1ccncc1 [N'-BENZYLIDENE ISONICOTINOHYDRAZIDE],Non-toxic
4,O=C(N/N=C/c1cccc(F)c1)c1ccncc1,Non-toxic
5,CCOc1ccccc1/C=N/NC(=O)c1ccncc1,Non-toxic
6,O=C(NN=C(c1ccccc1)c1ccccc1)c1ccncc1,Non-toxic

# Tested on: Mus musculus
# Assay: Anticonvulsant activity in ip dosed Mus musculus C57B/6 (mouse) assessed as protection against maximal electroshock-induced seizure after 4 hr
# Format: functional
# Conditions: C57B/6, ip, read-out: MED
row,SMILES,minimal effective dose
1,O=C1NC(=O)C(c2ccccc2)(c2ccccc2)N1 [PHENYTOIN],30 mg/kg

# Tested on: not listed separately
# Assay: Neurotoxicity in ip dosed Mus musculus C57B/6 (mouse) assessed as minimal motor impairment after 4 hr
# Format: toxicity, organism-based
# Conditions: in vivo
row,SMILES,MTD at 4 h
1,O=C(N/N=C(\c1ccccc1)c1ccc(Br)cc1)c1ccncc1,100 mg/kg
2,CN(C)c1ccc(/C=N/NC(=O)c2ccncc2)cc1 [N'-(4-DIMETHYLAMINOBENZYLIDENE)ISONICOTINOHYDRAZIDE],300 mg/kg
3,C/C(=N\NC(=O)c1ccncc1)c1ccccc1 [ISONICOTINOYLHYDRAZONE OF ACETOPHENONE],300 mg/kg

# Tested on: Mus musculus
# Assay: Anticonvulsant activity in ip dosed Mus musculus C57B/6 (mouse) assessed as protection against subcutaneous pentylene tetrazole-induced seizure after 0.5 hr
# Format: functional
# Conditions: C57B/6, 0.5 h, read-out: MED
row,SMILES,minimal effective dose
1,O=C(NN=C(c1ccccc1)c1ccccc1)c1ccncc1,300 mg/kg
